Legend:
[1] = system: a-syn-CHMP2B interaction; experiment: Proximity ligation assay, endogenous a-syn-CHMP2B in rat cortical neurons; type: cell-based
Procedure: PLA was performed on fixed primary neurons using Duolink® in situ red starter kit mouse/rabbit (Sigma–Aldrich) according to the manufacturer’s instructions. Fixed neurons were permeabilized with 0.1% Triton-X-100 in PBS for 10 min, washed three times with PBS, and incubated with blocking solution for 30 min at 37 °C in a humidity chamber. Primary antibodies (mouse anti-a-syn (clone 42) (BD Biosciences, catalog #610787, 1:500) and rabbit anti-CHMP2B (Abcam, catalog #ab33174, 1:50)) were diluted using antibody diluent. After blocking, neurons were incubated with primary antibodies at room temperature for 1 h in a humidity chamber. Coverslips were washed with wash buffer A two times for 5 min and then incubated with PLA probe solution (anti-mouse minus and anti-rabbit plus) for 1 h at 37 °C in a humidity chamber. Coverslips were washed with wash buffer A two times for 5 min. For the ligation step, 5× ligation buffer was diluted 1:5 in high purity water and ligase was added to the 1× ligation buffer at 1:40 dilution. After the wash, coverslips were incubated in the diluted ligase for 30 min at 37 °C in a humidity chamber. Post-ligation, coverslips were washed with wash buffer A two times for 5 min. For the amplification step, 5× amplification buffer was diluted 1:5 in high purity water and polymerase was added to the 1× amplification buffer at 1:80 dilution. […]

[2] = system: A53T a-syn; experiment: A53T a-syn immunofluorescence in rat cortical neurons; type: cell-based, human; settings: primary rat cortical neurons
Excerpt: Pregnant rats (E17) of the Sprague-Dawley strain were purchased from Envigo. Embryos were surgically removed from the mothers and cortices dissected in Hanks Balanced salt solution (Gibco). The meninges were removed, and cells were dissociated using a papain dissociation system (Worthington) before being resuspended in Neurobasal medium A supplemented with antibiotic-antimycotic solution (Gibco), L-glutamine substitute (GlutaMAX™; Gibco) and factor B27 (Gibco). […]
After fixation, cells were permeabilized with 0.2% Triton-X-100 for 15 min, washed three times with PBS and then incubated with blocking solution (1% BSA, 22.52 mg/mL glycine, 0.1% Tween-20 in PBS or 0.4% saponin, 1% BSA, and 5% goat or donkey serum in PBS) for 1 h. […] Following another three washes with PBS, nuclei were counterstained with DAPI (ThermoFisher) and then coverslips were mounted on slides using Dako fluorescence mounting medium (Agilent) and sealed using clear nail varnish.
Confocal images of immunofluorescent staining were acquired with a Zeiss LSM880 confocal microscope equipped with 405, 488, 555, and 639 nm laser lines. All images were taken within the linear range at constant gain and pinhole settings at optimal resolution settings determined by the software. […]

How did the “Effect on a-syn-CHMP2B interaction, PLA” value [1] turn out when DEEIERQLKALG [PDpep1.3] was run?
The value was “reduction of the interaction between endogenous WT a-syn and CHMP2B”.

And the “Effect on A53T a-syn fluorescence” value [2]?
Its value is “significant decrease in A53T a-syn fluorescence intensity”.
